What was measured:
Urea transporter 2 = target: T1, Urea transporter 2 (Rattus norvegicus, UniProt Q62668); test: UT-A1 Inhibition Assay
T1 sequence (Q62668 whole entry): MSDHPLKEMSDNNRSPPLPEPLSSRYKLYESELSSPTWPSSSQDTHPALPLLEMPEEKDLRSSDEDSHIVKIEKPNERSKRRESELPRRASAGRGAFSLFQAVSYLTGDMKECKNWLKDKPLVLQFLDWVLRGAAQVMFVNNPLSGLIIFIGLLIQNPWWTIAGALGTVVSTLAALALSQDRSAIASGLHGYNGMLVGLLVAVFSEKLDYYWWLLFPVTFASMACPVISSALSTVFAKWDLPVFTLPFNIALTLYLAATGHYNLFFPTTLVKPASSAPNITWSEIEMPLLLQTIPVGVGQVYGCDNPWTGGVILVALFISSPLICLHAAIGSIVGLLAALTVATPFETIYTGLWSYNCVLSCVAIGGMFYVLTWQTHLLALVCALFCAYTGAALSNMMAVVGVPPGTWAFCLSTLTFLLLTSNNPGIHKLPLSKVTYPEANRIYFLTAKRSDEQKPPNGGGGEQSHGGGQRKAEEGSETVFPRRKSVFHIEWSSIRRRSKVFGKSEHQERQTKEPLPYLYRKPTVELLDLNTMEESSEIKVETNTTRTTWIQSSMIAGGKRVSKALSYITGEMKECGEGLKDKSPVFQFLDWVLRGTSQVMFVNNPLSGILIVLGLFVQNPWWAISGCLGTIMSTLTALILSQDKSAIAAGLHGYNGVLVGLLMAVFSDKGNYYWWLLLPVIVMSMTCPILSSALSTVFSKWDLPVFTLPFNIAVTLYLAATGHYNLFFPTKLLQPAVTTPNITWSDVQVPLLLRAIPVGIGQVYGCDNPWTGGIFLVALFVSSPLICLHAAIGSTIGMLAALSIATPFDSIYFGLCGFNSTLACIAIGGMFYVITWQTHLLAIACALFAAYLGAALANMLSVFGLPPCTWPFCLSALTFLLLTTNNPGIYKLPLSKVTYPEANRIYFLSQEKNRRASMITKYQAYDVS
Method: The urea concentration dependence of UT-A1 inhibition was studied from inhibitor concentration response data (0.3 - 60 µM) using different of urea gradients (200 - 1,600 mM). The kinetics of UT-A1 inhibition was measured by adding inhibitors (3 µM) at different times prior to assay.

Urea transporter 1 = target: T2, Urea transporter 1 (Rattus norvegicus, UniProt P97689); test: UT-B Inhibition Assay
T2 sequence (P97689 whole entry): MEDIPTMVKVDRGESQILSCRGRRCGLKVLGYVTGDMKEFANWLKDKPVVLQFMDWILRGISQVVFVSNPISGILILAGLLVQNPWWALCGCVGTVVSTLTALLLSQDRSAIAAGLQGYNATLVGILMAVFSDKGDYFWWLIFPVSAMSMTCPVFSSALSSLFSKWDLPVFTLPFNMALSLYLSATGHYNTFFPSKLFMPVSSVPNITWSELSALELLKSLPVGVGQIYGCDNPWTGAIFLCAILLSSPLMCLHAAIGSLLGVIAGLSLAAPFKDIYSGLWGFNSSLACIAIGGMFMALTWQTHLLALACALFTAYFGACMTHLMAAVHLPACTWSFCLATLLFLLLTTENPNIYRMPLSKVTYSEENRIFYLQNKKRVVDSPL
Method: Erythrocyte suspension (100 µL) was added to each well of a 96-well microplate to which test compounds were added. After 15 min incubation, 20 µL of the erythrocyte suspension was added to each well of a 96-well plate containing 180 µL PBS containing 1% DMSO, followed by vigorous mixing. The absorbance was measured at 710 nm.

SMILES | IC50 (Urea transporter 2) | IC50 (Urea transporter 1)
[H]/N=C1/NC(=O)/C(=C\c2cccc(OC)c2OC)S1 [(5E)‐5‐[(2,3‐dimethoxyphenyl)methylidene]‐2‐imino‐1,3‐thiazolidin‐4‐one] | 7 µM | 43 µM
COc1ccc(Nc2cc(C(=O)N3CCSCC3)nc3c(OC)cccc23)cc1Cl [N‐(3‐chloro‐4‐methoxyphenyl)‐8‐methoxy‐2‐ (thiomorpholine‐4‐carbonyl)quinolin‐4‐amine] | 19 µM | 27 µM
CNc1nc2c(S(=O)(=O)c3ccccc3)nnn2c2ccsc12 [UT-A1 inhibitor D2] | > 50 µM | 35 µM
COc1cccc2c(Nc3ccc(C)c(Cl)c3)cc(C(=O)N3CCCCC3)nc12 [N‐(3‐chloro‐4‐methylphenyl)‐8‐methoxy‐2‐ (piperidine‐1‐carbonyl)quinolin‐4‐amine] | 24 µM | > 50 µM
COc1cccc2c(Nc3cccc(SC)c3)cc(C(=O)N3CCCCC3)nc12 [8‐methoxy‐N‐[3‐(methylsulfanyl)phenyl]‐2‐ (piperidine‐1‐carbonyl)quinolin‐4‐amine] | 3.8 µM | 20 µM
O=S(=O)(c1ccc(Br)cc1)c1nnn2c1nc(N=S1C=CC=C1)c1sccc12 [10‐(4‐bromobenzenesulfonyl)‐N‐[(1Z)‐1λ⁴‐thiophen‐1‐ ylidene]‐5‐thia‐1,8,11,12‐ tetraazatricyclo[7.3.0.0 ,⁶]dodeca‐2(6),3,7,9,11‐ pentaen‐7‐amine] | > 50 µM | 2.8 µM
CCOc1ccc(Nc2cc(C(=O)N3CCSCC3)nc3c(OC)cccc23)cc1 [N‐(4‐ethoxyphenyl)‐8‐methoxy‐2‐(thiomorpholine‐4‐ carbonyl)quinolin‐4‐amine] | 24 µM | 34 µM
COc1cccc(Nc2nc(Nc3ccc(C)cc3)nc(Sc3ccc(C)cc3)n2)c1 [2‐N‐(3‐methoxyphenyl)‐4‐N‐(4‐methylphenyl)‐6‐[(4‐ methylphenyl)sulfanyl]‐1,3,5‐triazine‐2,4‐diamine] | > 50 µM | 42 µM
CCc1ccc(S(=O)(=O)c2nnn3c2nc(NCCCOC)c2sccc23)cc1 | > 50 µM | 28 µM
COc1ccc(Nc2cc(C(=O)N3CCSCC3)nc3c(OC)cccc23)cc1 [8‐methoxy‐N‐(4‐methoxyphenyl)‐2‐(thiomorpholine‐4‐ carbonyl)quinolin‐4‐amine] | 3.5 µM | 6.2 µM
COc1cccc(/C=C2/SC(=N)NC2=O)c1O [(5E)‐5‐[(2‐hydroxy‐3‐methoxyphenyl)methylidene]‐2‐ imino‐1,3‐thiazolidin‐4‐one] | 4.6 µM | 6.3 µM
Cc1ccc(C)c(S(=O)(=O)c2nnn3c2nc(NC(C)C)c2sccc23)c1 | 3.8 µM | 15 µM
CCOc1ccc(Nc2cc(C(=O)N3CCCCC3)nc3c(OC)cccc23)cc1 [N‐(4‐ethoxyphenyl)‐8‐methoxy‐2‐(piperidine‐1‐ carbonyl)quinolin‐4‐amine] | 3.3 µM | 16 µM
CC(=O)OCCOc1ccccc1/C=C1/SC(=N)NC1=O [2‐(2‐{[(5E)‐2‐imino‐4‐oxo‐1,3‐thiazolidin‐5‐ ylidene]methyl}phenoxy)ethyl acetate] | 3.7 µM | 4.8 µM
COc1cccc(CNC(=O)c2ccc3cccc(O)c3n2)c1 [8‐hydroxy‐N‐[(3‐methoxyphenyl)methyl]quinoline‐2‐carboxamide] | – | > 50 µM
CSc1nc(Nc2ccc(Nc3ccccc3)cc2)nc(SC)n1 [1‐N‐[bis(methylsulfanyl)‐1,3,5‐triazin‐2‐yl]‐4‐N‐ phenylbenzene‐1,4‐diamine] | 45 µM | > 50 µM
COc1cccc2c(Nc3ccc(C)c(F)c3)cc(C(=O)N3CCCCC3)nc12 [N‐(3‐fluoro‐4‐methylphenyl)‐8‐methoxy‐2‐ (piperidine‐1‐carbonyl)quinolin‐4‐amine] | 25 µM | > 50 µM
COc1cc(/C=C2/SC(=N)NC2=O)ccc1O [(5E)‐5‐[(4‐hydroxy‐3‐methoxyphenyl)methylidene]‐2‐ imino‐1,3‐thiazolidin‐4‐one] | 25 µM | 6.2 µM

Reference: BindingDB's records for doi:10.1016/j.chembiol.2013.08.005 (University of California San Francisco, 2013)
